Reference: the NIST ThermoML archive (doi:10.1021/je5007696)
Values joined by “and” are separate entries in the source; they are usually repeats but may differ in a detail not shown here. Equal values may be shown once.

How the values were obtained:
[1] = refractive index (Na D-line) (dimensionless); details: 101.33 kPa, Liquid, Standard Abbe refractometry
[2] = Liquid; for viscosity: Concentric cylinders viscometry; for mass density: Vibrating tube method
[3] = xn = mol fraction of the nth substance listed; details: 100 kPa, Liquid, x2 = 0; for viscosity: Concentric cylinders viscometry; for mass density: Vibrating tube method
[4] = refractive index (Na D-line) (dimensionless); xn = mol fraction of the nth substance listed; details: 100 kPa, Liquid, Standard Abbe refractometry, x2 = 0

CCCCO [butan-1-ol]
[1]
Details | refractive index
288.15 K | 1.40135
293.15 K | 1.39932
298.15 K | 1.3973
303.15 K | 1.39523
308.15 K | 1.39318
313.15 K | 1.3911
318.15 K | 1.38901
323.15 K | 1.38688

[2], 100 kPa
Details | mass density [kg/m3] | viscosity [mPa·s]
288.15 K | 813.373 | 3.375
293.15 K | 809.573 | 2.945
298.15 K | 805.762 | 2.581
303.15 K | 801.923 | 2.272
308.15 K | 798.053 | 2.008
313.15 K | 794.147 | 1.782
318.15 K | 790.231 | 1.587
323.15 K | 786.238 | 1.419

CCCCO [butan-1-ol] + CCC(C)=O
Details | mass density, [3] [kg/m3] | refractive index, [4] | viscosity, [3] [mPa·s]
288.15 K | 813.373 | 1.40135 | 3.375
293.15 K | 809.573 | 1.39932 | 2.945
298.15 K | 805.762 | 1.3973 | 2.581
303.15 K | 801.923 | 1.39523 | 2.272
308.15 K | 798.053 | 1.39318 | 2.008
313.15 K | 794.147 | 1.3911 | 1.782
318.15 K | 790.231 | 1.38901 | 1.587
323.15 K | 786.238 | 1.38688 | 1.419

CCC(C)=O [butanone]
[1]
Details | refractive index
288.15 K | 1.38153
293.15 K | 1.37892
298.15 K | 1.37631
303.15 K | 1.37366
308.15 K | 1.37102
313.15 K | 1.36834
318.15 K | 1.36565
323.15 K | 1.36294

[2], 100 kPa
Details | mass density [kg/m3] | viscosity
288.15 K | 810.133 | 0.4306 mPa·s and 0.4306 mPa·s
293.15 K | 804.926 | 0.4136 mPa·s and 0.4136 mPa·s
298.15 K | 799.695 | 0.3962 mPa·s and 0.3962 mPa·s
303.15 K | 794.435 | 0.3793 mPa·s and 0.3793 mPa·s
308.15 K | 789.142 | 0.3626 mPa·s and 0.3626 mPa·s
313.15 K | 783.814 | 0.3461 mPa·s and 0.3461 mPa·s
318.15 K | 778.451 | 0.3303 mPa·s and 0.3303 mPa·s
323.15 K | 773.047 | 0.3168 mPa·s and 0.3167 mPa·s

CCC(C)=O [butanone] + COC(=O)CCCCC(=O)OC
[3]
Details | viscosity [mPa·s]
288.15 K | 0.4306
293.15 K | 0.4136
298.15 K | 0.3962
303.15 K | 0.3793
308.15 K | 0.3626
313.15 K | 0.3461
318.15 K | 0.3303
323.15 K | 0.3167

COC(=O)CCCCC(=O)OC [dimethyl 1,6-hexanedioate]
Details | refractive index
[1], 298.15 K | 1.4264

[2]
Details | mass density, 293.15 K [kg/m3] | viscosity, 288.15 K [mPa·s] | viscosity, 293.15 K [mPa·s] | viscosity, 298.15 K [mPa·s] | viscosity, 303.15 K [mPa·s] | viscosity, 308.15 K [mPa·s] | viscosity, 313.15 K [mPa·s] | viscosity, 318.15 K [mPa·s] | viscosity, 323.15 K [mPa·s]
100 kPa | – | 3.751 | 3.289 | 2.91 | 2.604 | 2.342 | 2.121 | 1.933 | 1.79
101.33 kPa | 1061.93 | – | – | – | – | – | – | – | –
